The results in this text go back to article PMC12785583, “Coconut Milk-Derived Bioactive Peptides as Multifunctional Agents Against Hyperglycemia, Oxidative Stress, and Glycation: An Integrated Experimental and Computational Study” (International Journal of Molecular Sciences, 2025).

Where two headings read alike, the source gives them in different places.

One may read the EC50 as the concentration giving half of the maximal effect. What is called IC50 is the midpoint of a concentration-inhibition curve.

Assay [1] in a line: methylglyoxal scavenging (Maillard reaction model, DNPH assay). The protocol:
This preliminary assay was conducted to evaluate the methylglyoxal scavenging activity of peptides derived from coconut milk. The Maillard reaction was employed to assess the scavenging potential of peptides against methylglyoxal, using parameters as outlined in previous studies by Risum et al., Zhu et al., and Brings et al., with modifications. The reaction mixture (1 mL) consisted of both peptides at different concentrations, methylglyoxal (0.01 mM), phosphate buffer, and water. It was incubated at two temperatures: room temperature (followed by immediate termination) and 37 °C (for 2 h). Following the incubation time, the reaction was terminated by adding 10 μL of glacial acetic acid. Creatine was used as a positive control. The experiments were performed in triplicate.
The scavenging potential of the peptides against methylglyoxal was determined using the DNPH assay. In brief, 25 μL of the sample was mixed with 975 μL of water and 1000 μL of DNPH reagent. The reaction mixture was shaken well and incubated at 37 °C for 10 min. Following incubation, the reaction was terminated by adding 1000 μL of 1.5 N NaOH, and the absorbance of the yellowish-orange complex was measured at 525 nm using […]: the MGO blank and the Creatine blank. Scavenging efficiency was calculated using Equations (4) and (5).(4) ACORR=Asample−Ablank (5) MGOscavenging=1−Acorr/AMGO,corr·100 where Asample is the absorbance of the reaction mixture containing methylglyoxal and the test compound (peptide or creatine), Ablank is the absorbance of the reagent blank (without methylglyoxal and without test compound), and AMGO,corr is the blank-corrected absorbance of the methylglyoxal blank (AMGO-Ablank). The creatine control was processed in the same way as the peptide samples.

Assay [2] deals with T1, aldose reductase (Homo sapiens, UniProt P15121). The assay is described as follows: aldose reductase inhibition assay. Type of assay: biochemical. The protocol: The aldose reductase inhibition assay was performed according to the method described by Alharbi et al.. Briefly, a 1 mL reaction mixture comprised 0.87 mL of 100 mM Sodium phosphate buffer (pH 6.2), 0.05 mL of 3 mM NADPH, 0.01 mL of human aldose reductase (recombinant, 0.2 U/mL), with the enzyme’s activity being 0.2 IU/mL, and 0.02 mL of test compounds (designated as peptide 1 and peptide 2) at different concentrations. 0.05 mL of the substrate (DL-glyceraldehyde, five mM) was incubated in the reaction mixture for 3 min at 25 °C. Enzyme activity was determined by measuring the reduction in NADPH absorption at 340 nm over 10 min. […] Aldose reductase inhibitory activity was expressed as the percentage of inhibition.

The target in the next assay is T2, α-amylase (Sus scrofa, UniProt P00690).
T2 construct: purchased SRL (Sisco Research Laboratories)
T2 sequence (P00690 16-511): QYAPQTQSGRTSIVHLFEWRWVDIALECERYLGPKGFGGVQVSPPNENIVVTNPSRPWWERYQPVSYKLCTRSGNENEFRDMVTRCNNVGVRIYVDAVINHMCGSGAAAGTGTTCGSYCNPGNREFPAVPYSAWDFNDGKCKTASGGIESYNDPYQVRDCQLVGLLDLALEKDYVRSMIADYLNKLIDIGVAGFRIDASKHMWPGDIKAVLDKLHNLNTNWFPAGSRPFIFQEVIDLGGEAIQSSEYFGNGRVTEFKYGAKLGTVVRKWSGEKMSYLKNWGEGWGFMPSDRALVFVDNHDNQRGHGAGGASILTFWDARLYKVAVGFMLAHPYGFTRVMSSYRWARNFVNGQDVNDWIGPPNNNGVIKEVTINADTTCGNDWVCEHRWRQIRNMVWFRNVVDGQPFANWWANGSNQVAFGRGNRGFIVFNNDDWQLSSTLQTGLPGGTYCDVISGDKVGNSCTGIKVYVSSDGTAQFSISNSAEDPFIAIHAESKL
Description: enzyme inhibition kinetics (Lineweaver-Burk), α-amylase. More on the design: Vmax: unit not given here. Type of assay: biochemical, porcine. The source says:
(§1) Enzyme inhibition by coconut milk peptide 2 was further characterised for α-glucosidase, α-amylase and aldose reductase by steady-state kinetic analysis. […] In this context, v denotes the initial rate of product formation, whereas [S] denotes the concentration of the chromogenic or natural substrate used in each assay. Michaelis explained how v depends on [S] for each condition, as described by the Michaelis–Menten equation (Equation (2)):(2) v=VmaxS/Km+S Lineweaver–Burk double-reciprocal plots (Equation (3)) were then constructed by plotting 1/v versus 1/[S]:(3) 1/v=Km/Vmax·1/S+1/Vmax Michaelis–Menten parameters (Km and Vmax) and apparent inhibition constants (Ki) were obtained from these Lineweaver–Burk plots.

In assay [3] the target is T1, aldose reductase. The assay is described as follows: enzyme inhibition kinetics (Lineweaver-Burk), aldose reductase. The assay is classed as biochemical. More on the design: Vmax: unit not given here.
Text: as §1

Assay [4] can be described thus: superoxide radical scavenging assay (NBT). As for the experimental part:
After 10 min of incubation at 25 °C in the dark, absorbance was recorded at 560 nm. Samples without NBT served as blanks, and ascorbic acid was used as the positive control. The results were expressed as the effective concentration (EC50) values.

Assay [5] in a line: DPPH radical scavenging assay. As for the experimental part:
The antioxidant assays of the test compounds were conducted in vitro, following previous studies, using the standard DPPH, ABTS, and superoxide radical scavenging assays. Regarding the DPPH assay, 0.2 mL of the test samples (peptides 1 and 2) at various concentrations was added to 1.2 mL of a 40 μg/mL DPPH solution in methanol. The mixtures were shaken vigorously and incubated in the dark for 20 min, after which the reduction in DPPH absorption was measured at 517 nm. The samples without DPPH and with methanol served as blanks. Ascorbic acid was used as the positive control.
A general note: Loss of DPPH colour is used to gauge radical scavenging.

Where [6] appears, read: mean ± SE, read-out: Ki (apparent inhibition constant) (converted).

Consider H-ADVFNPR-OH [Peptide 2, ADVFNPR], for which the “Methylglyoxal Scavenging EC50 at 37 °C, 2 h” value in assay [1] (37 °C, 2 h) is 182.17 ± 0.23 µg/mL. Besides, the EC50 is 223 µM in assay [1] (read-out: Methylglyoxal Scavenging EC50 at 37 °C, 2 h (value in bracket), 37 °C, 2 h); 254 µM in assay [1] (room temperature, immediate termination, read-out: Methylglyoxal Scavenging EC50 at RT (value in bracket) (converted)); 51.9 µM in assay [4] (read-out: Superoxide Radical Scavenging Assay EC50 (value in bracket) (converted)); 27.1 µM in assay [5] (read-out: DPPH Radical Scavenging Assay EC50 (value in bracket) (converted)). The “Methylglyoxal Scavenging EC50 at RT” value in assay [1] (room temperature, immediate termination) was 208.10 ± 0.65 µg/mL. The IC50 was 24.8 µM at aldose reductase [2] (mean ± SD, read-out: Aldose Reductase Inhibition IC50 (converted)) and 24.8 µM on aldose reductase [2] (read-out: Aldose Reductase Inhibition IC50 (value in bracket) (converted)). In addition, the Vmax at α-amylase (IC20—33.55 µg) is on record as 27.75; at α-amylase (IC40—67.10 µg), 26.26; on α-amylase (IC60—100.60 µg) it was 27.50; at aldose reductase [3] (IC20—8.12 µg), 46.64; on aldose reductase [3] (IC40—16.23 µg), 46.02; at aldose reductase [3] (IC60—24.35 µg), 45.55. Further, the Mode of inhibition result on α-amylase (from Lineweaver–Burk plot) and on aldose reductase [3] (from Lineweaver–Burk plot) was “Competitive” each time. The Ki at α-amylase (setting [6]) was 1.64 µM; on aldose reductase [3] (setting [6]), 0.954 µM. In addition, the “Vmax (essentially constant)” value on α-amylase (over IC20–IC60) is approximately 27 µM/min; on aldose reductase [3] (over IC20–IC60), approximately 46 µM/min. Further, the “Superoxide Radical Scavenging Assay EC50” value in assay [4] is recorded as 42.45 ± 0.30 µg/mL. The “DPPH Radical Scavenging Assay EC50” value in assay [5] amounted to 22.14 ± 0.12 µg/mL.
